The text below walks through data of ChEMBL document CHEMBL1201862, “PubChem BioAssay data set” (2004).

What all share (assay): NCI anticancer screen, dose series, 48 h
The test system of assay [1] is SW-620.
Assay [2] relates to SF-295.
Assay [3] concerns RXF 393.
Assay [4] deals with UACC-257.
The subject of assay [5] is HCT-116.
Assay [6] concerns LOX IMVI.
Assay [7] has as its system A549.
Assay [8] relates to SNB-75.
Assay [9] deals with RPMI-8226.
The subject of assay [10] is T47D.
Assay [11] deals with ACHN.
Assay [12] relates to NCI-H226.
For assay [13], the system named is U-251.
The subject of assay [14] is M14.
Assay [15] deals with MDA-MB-231.
In assay [16] the test system is SK-OV-3.
In assay [17] the test system is SK-MEL-2.
Assay [18] relates to K562.
Assay [19] relates to KM12.
Assay [20] relates to SR.

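Five concentrations, 48 hours, 96-well plates. GI50 = concentration required for 50% inhibition of growth.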 The source made the active and inactive calls. Rule as the data show it: active = GI50 up to about 1.1 µM and inactive = higher.

Take `Cc1c(C)c(C)c(CSC(=N)N)c(C)c1C`: the GI50 in assay [1] was 15.6 µM (inactive); in assay [2], 7.52 µM (inactive); in assay [3], 17.5 µM (inactive); in assay [4], 14.2 µM (inactive); in [5], 12.7 µM (inactive); in assay [6], 26.2 µM (inactive). In addition, the GI50 is 17.2 µM (inactive) in [7]; 15.6 µM (inactive) in assay [8]; 12.6 µM (inactive) in assay [9]; 14.6 µM (inactive) in assay [10]; 16.6 µM (inactive) in assay [11]; 13.6 µM (inactive) in assay [12]. For the same compound, the GI50 in [13] was 13.6 µM (inactive); in assay [14], 10.8 µM (inactive); in assay [15], 14.1 µM (inactive); in assay [16], 16 µM (inactive); in assay [17], 14.6 µM (inactive); in assay [18], 12.2 µM (inactive). Further, in [19], the GI50 is 18.4 µM (inactive).
With `O=C1c2ccccc2C2(c3ccc(F)cc3)NCCN12` (stereo not drawn), the GI50 in assay [1], in assay [2], in assay [3], in [4], in assay [5] and in assay [7] was > 100 µM (inactive) in each case. Further, the GI50 in assay [8], in assay [9], in assay [10], in assay [11], in assay [12] and in [13] was > 100 µM (inactive) throughout. Besides, the GI50 in [14], in assay [15], in [16], in assay [17], in assay [18] and in [19] was > 100 µM (inactive) in each case.
In the case of `O=C(Cn1nnc(-c2ccccc2)n1)N/N=C/c1cn(Cc2ccc(Cl)cc2Cl)c2ccccc12`, the GI50 in assay [1] was 58.3 µM (inactive); in assay [2] it was 63.2 µM (inactive); in assay [4], > 100 µM (inactive); in assay [5], > 100 µM (inactive); in [6], > 100 µM (inactive); in assay [20], 63.1 µM (inactive). Moreover, the GI50 was 51.5 µM (inactive) in assay [7]; 45.1 µM (inactive) in [8]; > 100 µM (inactive) in assay [9]; 47.2 µM (inactive) in assay [10]; > 100 µM (inactive) in assay [11]; > 100 µM (inactive) in assay [13]. The GI50 in assay [14], in [15], in assay [16], in [17], in assay [18] and in assay [19] was > 100 µM (inactive) in each case.
On to `O=C(NC(=O)c1ccccc1)OC(c1ccccc1)C1CO1` (stereo not drawn), for which the GI50 in assay [1], in assay [2], in assay [3], in [4], in [5] and in assay [6] was > 100 µM (inactive) throughout. Also, the GI50 in assay [7], in [8], in assay [9], in assay [10], in assay [11] and in assay [12] was > 100 µM (inactive) each time. Moreover, the GI50 in assay [13], in assay [14], in [15], in [16], in assay [17] and in [18] was > 100 µM (inactive) throughout. Besides, the GI50 in assay [19] was > 100 µM (inactive).
`CC(=O)OC1C2CCC3C(C)(O)C4CC(O)C(C)(C)C4(O)C(O)CC13CC2(C)O` (stereo not drawn): the GI50 in assay [2], in [4], in assay [5], in assay [6], in [20] and in assay [7] was > 100 µM (inactive) throughout. Further, the GI50 in assay [8], in assay [9], in assay [10], in [11], in [12] and in assay [14] was > 100 µM (inactive) in each case. Further, the GI50 in assay [15], in [16], in [17], in [18] and in assay [19] was > 100 µM (inactive) each time.
Consider `CN(C(=O)[C@@H](NC(=O)OC(C)(C)C)c1ccccc1)[C@H]1CCCC[C@@H]1N1CCCC1`, for which the GI50 in assay [1] was > 100 µM (inactive); in [2] it was > 100 µM (inactive); in assay [4] it was 72.6 µM (inactive); in assay [5] it was > 100 µM (inactive); in assay [20], > 100 µM (inactive); in assay [7] it was > 100 µM (inactive). Further, the GI50 in assay [9], in assay [10], in assay [11], in assay [12], in assay [13] and in assay [14] was > 100 µM (inactive) throughout. In addition, the GI50 in assay [15], in assay [16], in assay [17], in assay [18] and in assay [19] was > 100 µM (inactive) throughout.
In the case of `O=c1c(C(c2ccc(/C=C/c3ccccc3)cc2)c2c(O)oc3cc(O)ccc3c2=O)c(O)oc2cc(O)ccc12`, the GI50 was 91.8 µM (inactive) in assay [1]; > 100 µM (inactive) in [2]; > 100 µM (inactive) in assay [3]; > 100 µM (inactive) in assay [4]; > 100 µM (inactive) in assay [5]; 36.7 µM (inactive) in [6]. For the same compound, the GI50 was > 100 µM (inactive) in assay [7]; 29 µM (inactive) in assay [8]; 39.6 µM (inactive) in assay [9]; 52.6 µM (inactive) in assay [10]; > 100 µM (inactive) in [11]; > 100 µM (inactive) in assay [12]. Moreover, the GI50 in [13] was 2.88 µM (inactive); in assay [14], > 100 µM (inactive); in assay [15] it was > 100 µM (inactive); in [16], > 100 µM (inactive); in [17], > 100 µM (inactive); in assay [18], 91.4 µM (inactive). Also, in assay [19], the GI50 is > 100 µM (inactive).
`CCOC(=O)C1(C(=O)OCC)C[C@]23OCCC(=O)[C@H]2[C@H]2C(=O)OC(C)(C)O[C@]23C1`: the GI50 in [1], in assay [2], in [4], in assay [5], in assay [6] and in assay [20] was > 100 µM (inactive) throughout. Also, the GI50 in assay [7], in [8], in [9], in assay [10], in assay [11] and in assay [13] was > 100 µM (inactive) each time. For the same compound, the GI50 in [14], in assay [15], in [17] and in assay [19] was > 100 µM (inactive) each time.
For the compound `CC(C)(C)NC(=O)/C(=C\Sc1ccccc1)c1ccc2c(c1)OCO2`, the GI50 in assay [1] was 37.8 µM (inactive); in assay [2], 39.1 µM (inactive); in assay [4] it was 25.4 µM (inactive); in assay [5], 24.3 µM (inactive); in assay [6], 16.1 µM (inactive); in assay [20] it was 25.8 µM (inactive). Also, the GI50 in assay [7] was 31 µM (inactive); in assay [9], 22.8 µM (inactive); in assay [10] it was 26 µM (inactive); in assay [11], 36.9 µM (inactive); in assay [13], 30 µM (inactive); in assay [14], 21.8 µM (inactive). For the same compound, the GI50 in assay [15] was 21.8 µM (inactive); in [16] it was 52.5 µM (inactive); in assay [17], 15.5 µM (inactive); in assay [18] it was 43.6 µM (inactive); in assay [19], 32.4 µM (inactive).
With `Cc1[nH]c2ncn(/N=C/c3ccccc3)c(=N)c2c1Cc1ccccc1`, the GI50 in assay [1] was > 100 µM (inactive); in assay [2], > 100 µM (inactive); in assay [3], > 100 µM (inactive); in [4], 75.3 µM (inactive); in assay [5], 87.3 µM (inactive); in [6], 89.9 µM (inactive). Also, the GI50 in assay [7] was > 100 µM (inactive); in assay [8] it was > 100 µM (inactive); in assay [9], > 100 µM (inactive); in [10], > 100 µM (inactive); in [11], > 100 µM (inactive); in [12], 95.5 µM (inactive). Further, the GI50 in assay [13] was 98.6 µM (inactive); in assay [14], > 100 µM (inactive); in [15], 58.1 µM (inactive); in assay [16], > 100 µM (inactive); in assay [17], 87.1 µM (inactive); in assay [18], > 100 µM (inactive). In addition, the GI50 in assay [19] is 75.7 µM (inactive).
Consider `COC(=O)C(CSSC[C@H](N/C(C)=C/C(C)=O)C(=O)OC)N/C(C)=C/C(C)=O` (stereo partly drawn), for which the GI50 is 34.1 µM (inactive) in [1]; 35.2 µM (inactive) in [2]; 15.1 µM (inactive) in [3]; 32.7 µM (inactive) in assay [4]; 27 µM (inactive) in assay [5]; 14 µM (inactive) in assay [6]. For the same compound, the GI50 in assay [7] is 99.8 µM (inactive); in [8], 71.4 µM (inactive); in [9], 21.3 µM (inactive); in assay [10], 16.6 µM (inactive); in assay [11], < 0.01 µM (active); in assay [12], > 100 µM (inactive). The GI50 in assay [13] is 33.3 µM (inactive); in assay [14] it was 30.8 µM (inactive); in assay [15] it was > 100 µM (inactive); in [16], > 100 µM (inactive); in assay [17], > 100 µM (inactive); in assay [18], 33.3 µM (inactive). Further, in [19], the GI50 is 28.8 µM (inactive).
